Drawing on US10167279B2 (NOVARTIS AG, priority 2014, dated 2019), this text covers IC50 for 28 compounds.

Assay [1] addresses b-Raf (V600E) (Homo sapiens (Human), UniProt P15056, V600E). Briefly: In vitro Raf activity determination (Alpha Screen, phospho-MEK), b-Raf (V600E). The format is biochemical. The conditions noted are these: ATP 10 μM, 60 min pre-incubation, 3 hours reaction.
For assay [2], the target named is C-Raf FL (Homo sapiens (Human), UniProt P04049, Y340E/Y341E). Kind of assay: In vitro Raf activity determination (Alpha Screen, phospho-MEK), C-Raf FL (full length, Y340E/Y341E). The format is biochemical. The conditions noted are these: ATP 1 μM; 60 min pre-incubation; 1 hour reaction; column head does not say FL or TR. Put shortly: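 Read-out is AlphaScreen luminescence using rabbit anti-p-MEK with protein A beads after EDTA stop, with IC50 fitted by non-linear regression. Reaction: Sf9-derived C-Raf plus biotinylated E. coli MEK1 K97R substrate, pH 7.5 Tris/MgCl2/DTT buffer, compound preincubated 60 min at room temperature.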
Sequence of C-Raf FL (P04049 whole entry Y340E/Y341E): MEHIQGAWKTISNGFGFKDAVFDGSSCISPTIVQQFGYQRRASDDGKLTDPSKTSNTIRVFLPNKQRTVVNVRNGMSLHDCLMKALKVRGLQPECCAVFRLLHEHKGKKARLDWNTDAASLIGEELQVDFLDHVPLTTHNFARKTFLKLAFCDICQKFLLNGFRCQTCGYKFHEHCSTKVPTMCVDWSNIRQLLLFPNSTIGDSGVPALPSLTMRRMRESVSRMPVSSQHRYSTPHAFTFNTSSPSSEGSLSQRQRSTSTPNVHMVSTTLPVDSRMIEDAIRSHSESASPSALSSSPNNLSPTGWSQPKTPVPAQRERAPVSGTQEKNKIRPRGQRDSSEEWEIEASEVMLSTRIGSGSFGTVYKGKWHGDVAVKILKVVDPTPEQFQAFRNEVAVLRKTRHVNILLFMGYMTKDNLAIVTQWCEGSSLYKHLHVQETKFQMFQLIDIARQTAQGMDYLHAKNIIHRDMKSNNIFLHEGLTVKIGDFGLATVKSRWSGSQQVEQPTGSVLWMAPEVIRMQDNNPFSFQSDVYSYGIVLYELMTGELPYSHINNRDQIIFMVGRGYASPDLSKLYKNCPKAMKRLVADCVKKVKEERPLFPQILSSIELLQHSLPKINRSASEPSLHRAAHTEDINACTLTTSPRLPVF
Sequence of C-Raf FL (P63104 whole entry partner): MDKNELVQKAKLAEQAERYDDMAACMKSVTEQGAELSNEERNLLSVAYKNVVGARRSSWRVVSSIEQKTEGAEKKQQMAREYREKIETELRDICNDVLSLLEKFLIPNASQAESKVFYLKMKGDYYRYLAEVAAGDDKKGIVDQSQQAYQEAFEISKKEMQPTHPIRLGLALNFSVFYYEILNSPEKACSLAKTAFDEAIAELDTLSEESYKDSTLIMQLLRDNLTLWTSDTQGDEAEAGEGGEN

Sequence of b-Raf (V600E) (P15056 whole entry V600E): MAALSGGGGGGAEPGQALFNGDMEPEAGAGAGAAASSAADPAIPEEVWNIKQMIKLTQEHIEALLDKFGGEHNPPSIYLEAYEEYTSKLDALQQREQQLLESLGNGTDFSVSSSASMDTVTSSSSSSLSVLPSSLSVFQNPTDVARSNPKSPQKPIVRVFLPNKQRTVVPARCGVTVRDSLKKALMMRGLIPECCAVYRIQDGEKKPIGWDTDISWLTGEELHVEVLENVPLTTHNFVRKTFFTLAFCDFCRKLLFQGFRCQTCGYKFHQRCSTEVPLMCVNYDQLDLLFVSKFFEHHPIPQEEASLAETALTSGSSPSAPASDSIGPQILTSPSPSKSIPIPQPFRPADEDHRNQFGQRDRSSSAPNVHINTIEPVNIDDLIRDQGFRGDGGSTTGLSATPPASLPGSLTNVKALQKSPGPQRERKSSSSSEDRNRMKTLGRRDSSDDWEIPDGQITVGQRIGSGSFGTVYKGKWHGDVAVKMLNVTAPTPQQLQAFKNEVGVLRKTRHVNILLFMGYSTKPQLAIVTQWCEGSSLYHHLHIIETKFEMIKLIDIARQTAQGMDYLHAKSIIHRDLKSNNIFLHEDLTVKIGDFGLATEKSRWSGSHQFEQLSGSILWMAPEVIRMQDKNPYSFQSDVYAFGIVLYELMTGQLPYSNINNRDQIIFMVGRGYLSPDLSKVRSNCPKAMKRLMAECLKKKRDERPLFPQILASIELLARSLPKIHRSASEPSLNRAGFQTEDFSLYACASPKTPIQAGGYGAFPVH

Regarding `COc1cc(-c2cc(NC(=O)c3cccc(C(F)(F)F)c3)ccc2C)cc(C2COC2)c1` [Example 21], the IC50 in assay [1] was 2.73 nM; in assay [2], 0.373 nM.

On to `CCOc1ncc(-c2cc(NC(=O)c3ccnc(C(C)(C)C#N)c3)ccc2C)cc1C1(CF)COC1` [Example 31, 2-(2-cyanopropan-2-yl)-N-(3-(6-ethoxy-5-(3-(fluoromethyl)oxetan-3-yl)pyridin-3-yl)-4-methylphenyl)isonicotin-amide], for which the values for the IC50 in assay [1] and in assay [2] were 0.446 nM and 0.157 nM, respectively.

Turning to `COc1ncc(-c2cc(NC(=O)c3cc(C(C)(C)F)ccn3)cnc2C)cc1C1(F)COC1` [Example 93, N-(5′-(3-fluorooxetan-3-yl)-6′-methoxy-2-methyl-[3,3′-bipyridin]-5-yl)-4-(2-fluoropropan-2-yl)picolinamide], the IC50 in assay [1] came out at 8.03 nM; in assay [2], 1.01 nM.

For `COc1ncc(-c2cc(C(=O)Nc3ccnc(S(C)(=O)=O)c3)ccc2C)cc1C1(O)COC1` [Example 145, 3-(5-(3-hydroxyoxetan-3-yl)-6-methoxypyridin-3-yl)-4-methyl-N-(2-(methylsulfonyl)pyridin-4-yl)benzamide], the IC50 was 49.3 nM in assay [1] and 7.29 nM in assay [2].

Consider `Cc1ncc(NC(=O)c2cccc(C(F)(F)F)c2)cc1-c1cc(C2(F)COC2)c(=O)n(CCCO)c1` [Example 44, N-(5′-(3-fluorooxetan-3-yl)-1′-(3-hydroxypropyl)-2-methyl-6′-oxo-1′,6′-dihydro-[3,3′-bipyridin]-5-yl)-3-(trifluoromethyl)benzamide], for which the results for the IC50 in assay [1] and in assay [2] were 67.9 nM and 8.63 nM, respectively.

With `CCOc1ncc(-c2cc(NC(=O)c3cc(C(C)(C)N)cc(C(F)(F)F)c3)cnc2C)cc1C1(F)COC1` [Example 130, 3-(2-aminopropan-2-yl)-N-(6′-ethoxy-5′-(3-fluorooxetan-3-yl)-2-methyl-[3,3′-bipyridin]-5-yl)-5-(trifluoromethyl)benzamide], the IC50 was 20.1 nM in assay [1] and 3.09 nM in assay [2].

For the compound `COc1ncc(-c2cc(NC(=O)c3ccnc(C(F)(F)F)c3)ccc2C)cc1C1(CF)COC1` [Example 105, N-(3-(5-(3-(fluoromethyl)oxetan-3-yl)-6-methoxypyridin-3-yl)-4-methylphenyl)-2-(trifluoromethyl)isonicotin-amide], the results for the IC50 in assay [1] and in assay [2] were 0.323 nM and 0.0915 nM, respectively.

With `COc1ncc(-c2cc(NC(=O)c3ccnc(C(C)(F)F)c3)ccc2C)cc1C1(CF)COC1` [Example 103, 2-(1,1-difluoroethyl)-N-(3-(5-(3-(fluoromethyl)oxetan-3-yl)-6-methoxypyridin-3-yl)-4-methylphenyl)isonicotin-amide], the values for the IC50 in assay [1] and in assay [2] were 0.293 nM and 0.0844 nM, respectively.

On to `CCOc1ncc(-c2cc(NC(=O)c3cnnc(C(F)(F)F)c3)cnc2C)cc1C1(C)COC1` [Example 66, N-(6′-ethoxy-2-methyl-5′-(3-methyloxetan-3-yl)-[3,3′-bipyridin]-5-yl)-6-(trifluoromethyl)pyridazine-4-carboxamide], for which the IC50 in assay [1] came out at 1.45 nM; in assay [2] it was 0.258 nM.

Consider `Cc1ccc(NC(=O)c2ccnc(C(C)(F)F)c2)cc1-c1cnc(-c2cnn(C)c2)c(C2(O)COC2)c1` [Example 144, 2-(1,1-difluoroethyl)-N-(3-(5-(3-hydroxyoxetan-3-yl)-6-(1-methyl-1H-pyrazol-4-yl)pyridin-3-yl)-4-methylphenyl)isonicotin-amide], for which the IC50 in assay [1] was 1.67 nM; in assay [2], 0.364 nM.

On to `CCOc1ncc(-c2cc(NC(=O)c3ccnc(C(F)(F)F)c3)ccc2C)cc1C1(O)COC1` [Example 124, N-(3-(6-ethoxy-5-(3-hydroxyoxetan-3-yl)pyridin-3-yl)-4-methylphenyl)-2-(trifluoromethyl)isonicotin-amide], for which the figures for the IC50 in assay [1] and in assay [2] were 2.28 nM and 0.372 nM, respectively.

`COc1ncc(-c2cc(NC(=O)c3ccnc(C(C)(C)C#N)c3)ccc2C)cc1C1(F)COC1` [Example 30, 2-(2-cyanopropan-2-yl)-N-(3-(5-(3-fluorooxetan-3-yl)-6-methoxypyridin-3-yl)-4-methylphenyl)isonicotin-amide]: the results for the IC50 in assay [1] and in assay [2] were 1.3 nM and 0.229 nM, respectively.

On to `Cc1ncc(NC(=O)c2cccc(C(F)(F)F)c2)cc1-c1cccc(C2(C)COC2)c1` [Example 24], for which the IC50 was found to be 3.52 nM in assay [1] and 0.455 nM in assay [2].

Turning to `COc1ncc(-c2cc(NC(=O)c3ccnc(C(C)(C)F)c3)ccc2C)cc1C1(O)COC1` [Example 99, 2-(2-fluoropropan-2-yl)-N-(3-(5-(3-hydroxyoxetan-3-yl)-6-methoxypyridin-3-yl)-4-methylphenyl)isonicotin-amide], the results for the IC50 in assay [1] and in assay [2] were 2.67 nM and 0.415 nM, respectively.

As for `Cc1ncc(NC(=O)c2cc(C(C)(C)C#N)ccn2)cc1-c1cccc(C2(C)COC2)c1` [Example 126, 4-(2-cyanopropan-2-yl)-N-(6-methyl-5-(3-(3-methyloxetan-3-yl)phenyl)pyridin-3-yl)picolinamide], the figures for the IC50 in assay [1] and in assay [2] were 7.74 nM and 1.97 nM, respectively.

For the compound `COc1ncc(-c2cc(NC(=O)c3cc(C(C)(C)C#N)ccn3)ccc2C)cc1C1(O)COC1` [Example 85, 4-(2-cyanopropan-2-yl)-N-(3-(5-(3-hydroxyoxetan-3-yl)-6-methoxypyridin-3-yl)-4-methylphenyl)picolinamide], the IC50 amounted to 6.47 nM in assay [1] and 1.17 nM in assay [2].

As for `CCOc1nnc(-c2cc(NC(=O)c3ccnc(C(C)(F)F)c3)cnc2C)cc1C1(C)COC1` [Example 127, 2-(1,1-difluoroethyl)-N-(5-(6-ethoxy-5-(3-methyloxetan-3-yl)pyridazin-3-yl)-6-methylpyridin-3-yl)isonicotinamide], the IC50 in assay [1] worked out at 3.15 nM; in assay [2] it was 0.987 nM.

On to `Cc1ccc(NC(=O)c2ccnc(C(C)(C)C#N)c2)cc1-c1cc(C2(C)COC2)c2nccn2n1` [Example 29, 2-(2-cyanopropan-2-yl)-N-(4-methyl-3-(8-(3-methyloxetan-3-yl)imidazo[1,2-b]pyridazin-6-yl)phenyl)isonicotinamide], for which the results for the IC50 in assay [1] and in assay [2] were 4.95 nM and 0.637 nM, respectively.

`COc1ncc(-c2cc(NC(=O)c3cccc(C(F)(F)F)c3)cnc2C)cc1C1(CF)COC1` [Example 49, N-(5′-(3-(fluoromethyl)oxetan-3-yl)-6′-methoxy-2-methyl-[3,3′-bipyridin]-5-yl)-3-(trifluoromethyl)benzamide]: the IC50 in assay [1] amounted to 0.469 nM; in assay [2], 0.118 nM.

In the case of `CCC(F)(F)c1cc(C(=O)Nc2cnc(C)c(-c3cnc(OC)c(C4(C#N)COC4)c3)c2)ccn1` [Example 117, N-(5′-(3-cyanooxetan-3-yl)-6′-methoxy-2-methyl-[3,3′-bipyridin]-5-yl)-2-(1,1-difluoropropyl)isonicotin-amide], the IC50 in assay [1] was found to be 7.19 nM; in assay [2], 1.43 nM.

Take `Cc1ccc(NC(=O)c2ccnc(C(F)(F)F)c2)cc1-c1cnc(OC2CCOCC2)c(C2(O)COC2)c1` [Example 35, N-(3-(5-(3-hydroxyoxetan-3-yl)-6-((tetrahydro-2H-pyran-4-yl)oxy)pyridin-3-yl)-4-methylphenyl)-2-(trifluoromethyl)isonicotin-amide]: the IC50 is 0.966 nM in assay [1] and 0.297 nM in assay [2].

Consider `Cc1ncc(NC(=O)c2ccnc(C(C)(F)F)c2)cc1-c1cccc(C2COC2)c1` [Example 70, 2-(1,1-difluoroethyl)-N-(6-methyl-5-(3-(oxetan-3-yl)phenyl)pyridin-3-yl)isonicotinamide], for which the IC50 in assay [1] worked out at 12.9 nM; in assay [2], 1.59 nM.

Regarding `COc1cc(-c2cc(NC(=O)c3ccnc(C(C)(C)C#N)c3)ccc2C)cc(C2COC2)c1` [Example 23, 2-(2-cyanopropan-2-yl)-N-(3′-methoxy-6-methyl-5′-(oxetan-3-yl)-[1,1′-biphenyl]-3-yl)isonicotinamide], the IC50 in assay [1] and in assay [2] was 25000 nM each time.

In the case of `COc1ncc(-c2cc(NC(=O)c3cc(C(C)(C)N)cc(C(F)(F)F)c3)ccc2C)cc1C1(F)COC1` [Example 107, 3-(2-aminopropan-2-yl)-N-(3-(5-(3-fluorooxetan-3-yl)-6-methoxypyridin-3-yl)-4-methylphenyl)-5-(trifluoromethyl)benzamide], the values for the IC50 in assay [1] and in assay [2] were 2.96 nM and 0.725 nM, respectively.

For the compound `COc1ncc(-c2cc(NC(=O)c3ccnc(C(F)(F)F)c3)ccc2C)cc1C1(O)COC1` [Example 71, N-(3-(5-(3-hydroxyoxetan-3-yl)-6-methoxypyridin-3-yl)-4-methylphenyl)-2-(trifluoromethyl)isonicotin-amide], the IC50 came out at 2.84 nM in assay [1] and 0.351 nM in assay [2].

On to `COc1ncc(-c2cc(NC(=O)c3cc(C(C)(F)F)ccn3)cnc2C)cc1C1(F)COC1` [Example 90, 4-(1,1-difluoroethyl)-N-(5′-(3-fluorooxetan-3-yl)-6′-methoxy-2-methyl-[3,3′-bipyridin]-5-yl)picolinamide], for which the IC50 in assay [1] turned out to be 3.61 nM; in assay [2], 0.386 nM.

As for `CCOc1ncc(-c2cc(NC(=O)c3ccnc(C(F)(F)F)c3)cnc2C)cc1C1(C)COC1` [Example 63, N-(6′-ethoxy-2-methyl-5′-(3-methyloxetan-3-yl)-[3,3′-bipyridin]-5-yl)-2-(trifluoromethyl)isonicotin-amide], the values for the half-maximal inhibitory concentration (IC50) in assay [1] and in assay [2] were 0.613 nM and 0.183 nM, respectively.

Consider `COc1ncc(-c2cc(NC(=O)c3ccnc(C(F)(F)F)c3)cnc2C)cc1C1(O)COC1` [Example 75, N-(5′-(3-hydroxyoxetan-3-yl)-6′-methoxy-2-methyl-[3,3′-bipyridin]-5-yl)-2-(trifluoromethyl)isonicotin-amide], for which the IC50 in assay [1] amounted to 76.6 nM; in assay [2], 6.36 nM.
